Test results taken from patent US20250136722A1, “CYTOTOXICITY TARGETING CHIMERAS” (GLAXOSMITHKLINE INTELLECTUAL PROPERTY DEVELOPMENT LIMITED, priority 2021, published 2025).
Values joined by “and” are separate entries in the source; they are usually repeats but may differ in a detail not shown here. Equal values may be shown once.

Legend:
[1] = biological target: T1, CHOK1 cells engineered to overexpress human CCR2 (Homo sapiens, UniProt P41597); assay: Antibody dependent cellular cytotoxicity (ADCC) reporter assay (Example 199); format: cell-based; conditions: with anti-cotinine antibody SEQ ID NO: 11/12; CHOK1-human CCR2 target cells, Jurkat FcγRIIIa NFAT-luciferase reporter cells; 12-18 hours; read-out: ADCC Reporter Assay pEC50 (converted)
T1 construct: expressed in transfected cells; host or cells: CHOK1 cells
Outline: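 CHOK1-hCCR2 target cells are co-incubated for 12–18 h with Jurkat FcγRIIIa/NFAT-luciferase reporter cells, ARM compound (1 pM–10 μM) and anti-cotinine antibody with a DE-mutant human IgG1 Fc (0.01–200 μg/mL). Luminescence is expressed as signal:background against no-compound wells; EC50 comes from nonlinear fit and is reported as pEC50, averaged across runs.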

[2] = biological target: human alpha1 nicotinic acetylcholine (nACh) receptor (Homo sapiens, UniProt P02708+Q07001); assay: Nicotinic acetylcholine receptor antagonism assay, IONFlux automated patch clamp (Example 203); format: cell-based; conditions: for Emax at 100 µM: maximum percentage antagonism at maximum concentration tested 100 μM; for Emax at 100 µM / Emax at 10 µM: read-out: Maximum Response (%); for IC50: nAChR antagonism, ACh stimulated, patch clamp; for Emax at 10 µM: maximum percentage antagonism at maximum concentration tested 10 μM
Sequence of human alpha1 nicotinic acetylcholine (nACh) receptor (P02708 21-457): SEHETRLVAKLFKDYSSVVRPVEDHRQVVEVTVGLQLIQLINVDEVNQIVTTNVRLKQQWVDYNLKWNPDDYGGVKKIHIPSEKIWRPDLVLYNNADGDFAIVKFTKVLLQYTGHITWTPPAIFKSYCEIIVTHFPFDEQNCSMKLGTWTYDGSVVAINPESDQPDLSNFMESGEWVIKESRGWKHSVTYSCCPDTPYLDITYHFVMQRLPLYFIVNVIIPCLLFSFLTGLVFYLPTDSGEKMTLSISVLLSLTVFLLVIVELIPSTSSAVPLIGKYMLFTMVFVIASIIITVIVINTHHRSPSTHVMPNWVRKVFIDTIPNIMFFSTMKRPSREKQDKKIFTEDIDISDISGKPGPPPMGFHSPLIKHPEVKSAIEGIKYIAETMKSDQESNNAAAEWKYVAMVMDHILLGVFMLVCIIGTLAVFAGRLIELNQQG
Sequence of human alpha1 nicotinic acetylcholine (nACh) receptor (P11230 24-501 partner): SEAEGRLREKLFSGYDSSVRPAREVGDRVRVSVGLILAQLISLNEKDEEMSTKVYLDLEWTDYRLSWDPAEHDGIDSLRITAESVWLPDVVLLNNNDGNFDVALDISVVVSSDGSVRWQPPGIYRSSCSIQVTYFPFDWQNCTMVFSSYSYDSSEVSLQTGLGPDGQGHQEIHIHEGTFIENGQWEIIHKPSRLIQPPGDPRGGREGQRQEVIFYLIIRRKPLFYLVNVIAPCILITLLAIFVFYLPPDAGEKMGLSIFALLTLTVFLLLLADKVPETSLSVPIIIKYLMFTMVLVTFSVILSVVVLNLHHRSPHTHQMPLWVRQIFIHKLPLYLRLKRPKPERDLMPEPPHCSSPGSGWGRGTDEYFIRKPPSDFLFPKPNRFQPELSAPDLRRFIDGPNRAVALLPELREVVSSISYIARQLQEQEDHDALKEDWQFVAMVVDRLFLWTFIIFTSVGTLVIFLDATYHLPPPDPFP
Sequence of human alpha1 nicotinic acetylcholine (nACh) receptor (Q07001 22-517): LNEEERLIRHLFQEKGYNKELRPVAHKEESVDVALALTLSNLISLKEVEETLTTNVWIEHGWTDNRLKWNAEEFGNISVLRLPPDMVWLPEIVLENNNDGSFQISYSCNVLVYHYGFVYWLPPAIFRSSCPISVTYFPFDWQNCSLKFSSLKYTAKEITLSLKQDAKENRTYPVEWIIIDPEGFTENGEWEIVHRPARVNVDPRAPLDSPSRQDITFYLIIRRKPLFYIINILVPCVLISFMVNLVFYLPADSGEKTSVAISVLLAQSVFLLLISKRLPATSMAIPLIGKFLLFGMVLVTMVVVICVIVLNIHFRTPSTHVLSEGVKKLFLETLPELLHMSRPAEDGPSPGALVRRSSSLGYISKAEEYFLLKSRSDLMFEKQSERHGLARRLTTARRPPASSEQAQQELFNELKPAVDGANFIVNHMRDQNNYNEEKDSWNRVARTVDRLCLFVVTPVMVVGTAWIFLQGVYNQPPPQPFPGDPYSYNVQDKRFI
Protocol: Cells expressing human alpha1 nicotinic acetylcholine (nACh) receptor (nAChR) were washed and dissociated using Trypsin containing buffer. Cells were then washed and seeded at a density of 3-5 million cells/mL and allowed to grow for 3 days. Then, 60-80 μL of cells were added to plates and incubated with dose response of an ARM compound of Formula (I) with a top concentration of either 10 μM or 100 μM. The receptor was then stimulated via addition of acetylcholine (ACh) and activation of the receptor was monitored via the IONFlux automated patch clamp system. IonFlux Data Analyzer software was utilized to perform leak subtraction and measure (min) peak current amplitude.
Data processing: (1) Current values recorded for vehicle only applications in individual traps/patterns were subtracted from corresponding current amplitude values for control, test article and control+test article. (2) Control response was calculated as % of the average response of the 3rd out of total 3 ACh (10 mM) applications alone. In rare situations, if the 3rd ACh response was obscured due to technical artifacts, the 2nd and/or 1 st ACh (10 mM) application was considered as control. The peak current amplitude generated in the presence of each test article concentration was then used to calculate the % inhibition as compared to control response (10 mM ACh alone). These estimates were further corrected for vehicle response and run down corrected by normalizing with time matched control responses (10 mM ACh alone). The corrected percentages were then fit with a non-linear function in GraphPad Prism 6 (or later versions) to determine the […].
Exclusion criteria: (i) any n's with poor recording quality, (ii) control current amplitude <500 pA or (iii) significant outliers, as determined by the Grubbs' test.
ARMs compounds of Formula (I) of the invention were tested for antagonism of the nAChR in the above assay in […] experimental runs and the results are shown in Table 7 below. Antagonistic activity of the compounds of Formula (I) of the invention is reported as an IC50 value (half maximal inhibitory concentration) and the maximum percentage antagonism observed at the highest concentration of compound of Formula (I) tested, as indicated in Table 7. For compounds tested in more than one experimental run, the IC50 value is reported as an average.

[3] = biological target: Anti-cotinine antibody (SEQ ID NO: 11 / SEQ ID NO: 12, rabbit variable region with human IgG1 Fc domain); assay: Binding of anti-cotinine antibody to ARM compounds by SPR, Biacore T200, 37° C. (Example 202); conditions: pH 7.4, rabbit variable region/human IgG1 Fc antibody captured on protein A
Protocol: Anti-cotinine antibodies having a heavy chain sequence of SEQ ID NO: 11 and a light chain sequence of SEQ ID NO: 12 (rabbit variable region with human IgG1 Fc domain containing a DE mutation (S239D/1332E)) were captured on one or more flow cells of a protein A sensor chip (Cytiva) using a Biacore T200 while reserving flow cell 1 as a reference. Following capture, a 3000 second wait step was included to reduce drift during compound analysis. ARM compounds of Formula (I) were then injected at 100 μL/min with 200 and 2000 second association and dissociation times. The entire experiment was run at 37° C. with running buffer containing 10 mM HEPES pH 7.4, 150 mM NaCl, 0.005% P20 and 1% DMSO. ARM compounds of Formula (I) were titrated with a top concentration of 200 nM using a 3-fold 5-point dilution series and a corresponding 5-injection buffer cycle was run for blank subtraction. Data were double referenced by subtracting the response of the reference flow cell from that of the antibody-containing flow cell and subsequently subtracting the referenced blank sensorgrams. Following compound analysis, the surface was regenerated using a 30 second injection of pH 1.5 glycine at a flow rate of 30 μL/min after which antibody was re-captured. The experiment was run using Biacore T200 control software and evaluated using Biacore T200 Evaluation software. Curves were fit with a 1:1 kinetic binding model to obtain kon(1/Ms), koff(1/s), Kd (M) determined as koff/kon, and residence time determined as 1/koff. (s).
Anti-cotinine antibody was tested for binding to ARMs compounds of Formula (I) of the invention in the above assay in or more experimental runs and the results are shown in Table 5 below. Affinity is reported as a pKd value. The pKd value is the negative log of the Kd value, wherein the Kd value is the dissociation constant measured in molar (M) as noted above. For compounds tested in more than one experimental run, the pKd value is reported as an average.

SMILES | EC50 [1] | Emax at 100 µM [2] | IC50 [2] | pKd of Antibody for ARM Compound of Formula (I) [3] | Emax at 10 µM [2]
CC(C)N(C)[C@@H]1CC[C@H](N2CC[C@H](Nc3ncnc4ccc(C(F)(F)F)cc34)C2=O)[C@H](NC(=O)[C@H]2C[C@H](NC(=O)CCCO[C@H]3CC[C@H](OCCNC(=O)[C@H]4CC(=O)N(C)[C@@H]4c4cccnc4)CC3)C2)C1 [Example 8] | 0.631 nM | 73.1% | 47200 nM | – | –
CC(C)N(C)[C@@H]1CC[C@H](N2CC[C@H](Nc3ncnc4ccc(C(F)(F)F)cc34)C2=O)[C@H](NC(=O)[C@H]2C[C@@H](NC(=O)CCCO[C@H]3CC[C@H](OCCNC(=O)[C@H]4CC(=O)N(C)[C@@H]4c4cccnc4)CC3)C2)C1 [Example 9] | 25.1 nM | 53.9% | 82000 nM | – | –
CC(C)N(C)[C@@H]1CC[C@H](N2CC[C@H](Nc3ncnc4ccc(C(F)(F)F)cc34)C2=O)[C@H](NC(=O)[C@H]2CC[C@H](NC(=O)CCCO[C@H]3CC[C@H](OCCNC(=O)[C@H]4CC(=O)N(C5CC5)[C@@H]4c4cccnc4)CC3)CC2)C1 [Example 13] | – | – | – | 10.511 | –
CC(C)N(C)[C@@H]1CC[C@H](N2CC[C@H](Nc3ncnc4ccc(C(F)(F)F)cc34)C2=O)[C@H](NC(=O)[C@H]2CC[C@@H](NC(=O)CCOCCCNC(=O)CCCNC(=O)[C@H]3CC(=O)N(C)[C@@H]3c3cccnc3)CC2)C1 [Example 17, (2S,3S)-N-(4-((3-(3-(((1S,4s)-4-(((1R,2S,5R)-5-(Isopropyl(methyl)amino)-2-((S)-2-oxo-3-((6-(trifluoromethyl)quinazolin-4-yl)amino)pyrrolidin-1-yl)cyclohexyl)carbamoyl)cyclohexyl)amino)-3-oxopropoxy)propyl)amino)-4-oxobutyl)-1-methyl-5-oxo-2-(pyridin-3-yl)pyrrolidine-3-carboxamide] | 0.338 nM and 0.656 nM | 55.1% | ≥ 100000 nM | – | –
CC(C)N(C)[C@@H]1CC[C@H](N2CC[C@H](Nc3ncnc4ccc(C(F)(F)F)cc34)C2=O)[C@H](NC(=O)[C@H]2C[C@H](NC(=O)CCOCCOCCOCCNC(=O)[C@H]3CC(=O)N(C)[C@@H]3c3cccnc3)C2)C1 [Example 27] | 7.28 nM | 53.8% | 93700 nM | – | –
CC(C)N(C)[C@@H]1CC[C@H](N2CC[C@H](Nc3ncnc4ccc(C(F)(F)F)cc34)C2=O)[C@H](NC(=O)[C@H]2C[C@@H](NC(=O)CCOCCNC(=O)CCOCCNC(=O)[C@H]3CC(=O)N(C)[C@@H]3c3cccnc3)C2)C1 [Example 44, (2S,3S)-N-(2-(3-((2-(3-(((1S,3s)-3-(((1R,2S,5R)-5-(Isopropyl(methyl)amino)-2-((S)-2-oxo-3-((6-(trifluoromethyl)quinazolin-4-yl)amino)pyrrolidin-1-yl)cyclohexyl)carbamoyl)cyclobutyl)amino)-3-oxopropoxy)ethyl)amino)-3-oxopropoxy)ethyl)-1-methyl-5-oxo-2-(pyridin-3-yl)pyrrolidine-3-carboxamide] | 0.897 nM | 51.5% | ≥ 100000 nM | – | –
CC(C)N(C)[C@@H]1CC[C@H](N2CC[C@H](Nc3ncnc4ccc(C(F)(F)F)cc34)C2=O)[C@H](NC(=O)[C@H]2CC[C@@H](NC(=O)CCCOC[C@H]3CC[C@@H](COCCNC(=O)[C@H]4CC(=O)N(C)[C@@H]4c4cccnc4)CC3)CC2)C1 [Example 61] | – | – | – | 9.558 | –
CC(C)N(C)[C@@H]1CC[C@H](N2CC[C@H](Nc3ncnc4ccc(C(F)(F)F)cc34)C2=O)[C@H](NC(=O)c2ccc(C3CCN(CCOCCOCCNC(=O)[C@H]4CC(=O)N(C)[C@@H]4c4cccnc4)CC3)cn2)C1 [Example 94] | 10 nM | – | 4660 nM | – | 67.1%
CC(C)N(C)[C@@H]1CC[C@H](N2CC[C@H](Nc3ncnc4ccc(C(F)(F)F)cc34)C2=O)[C@H](NC(=O)c2ccc(N3CCC(C(=O)NCCOCCOCCNC(=O)[C@H]4CC(=O)N(C)[C@@H]4c4cccnc4)CC3)cc2)C1 [Example 130, 1-(4-(((1R,2S,5R)-5-(Isopropyl(methyl)amino)-2-((S)-2-oxo-3-((6-(trifluoromethyl)quinazolin-4-yl)amino)pyrrolidin-1-yl)cyclohexyl)carbamoyl)phenyl)-N-(2-(2-(2-((2S,3S)-1-methyl-5-oxo-2-(pyridin-3-yl)pyrrolidine-3-carboxamido)ethoxy)ethoxy)ethyl)piperidine-4-carboxamide] | 3.98 nM | – | > 10000 nM | – | 16.8%
CC(C)N(C)[C@@H]1CC[C@H](N2CC[C@H](Nc3ncnc4ccc(C(F)(F)F)cc34)C2=O)[C@H](NC(=O)[C@H]2CC[C@H](c3ccc(C(=O)NCCOCCOCCNC(=O)[C@H]4CC(=O)N(C)[C@@H]4c4cccnc4)cc3)CC2)C1 [Example 140] | 3.16 nM | – | > 10000 nM | – | 18.2%
CC(C)N(C)[C@@H]1CC[C@H](N2CC[C@H](Nc3ncnc4ccc(C(F)(F)F)cc34)C2=O)[C@H](NC(=O)C2CCN(c3ccc(C(=O)NCCOCCOCCNC(=O)[C@H]4CC(=O)N(C)[C@@H]4c4cccnc4)cc3)CC2)C1 [Example 142] | 0.501 nM | – | > 10000 nM | – | 13.1%
CC(C)N(C)[C@@H]1CC[C@H](N2CC[C@H](Nc3ncnc4ccc(C(F)(F)F)cc34)C2=O)[C@H](NC(=O)CCOCCOCCO[C@H]2CC[C@H](OCCNC(=O)[C@H]3CC(=O)N(C)[C@@H]3c3cccnc3)CC2)C1 [Example 192, (2S,3S)-N-(2-(((1R,4S)-4-(2-(2-(3-(((1R,2S,5R)-5-(Isopropyl(methyl)amino)-2-((S)-2-oxo-3-((6-(trifluoromethyl)quinazolin-4-yl)amino)pyrrolidin-1-yl)cyclohexyl)amino)-3-oxopropoxy)ethoxy)ethoxy)cyclohexyl)oxy)ethyl)-1-methyl-5-oxo-2-(pyridin-3-yl)pyrrolidine-3-carboxamide] | – | 53% | 74300 nM | – | –
CC(C)N(C)[C@@H]1CC[C@H](N2CC[C@H](Nc3ncnc4ccc(C(F)(F)F)cc34)C2=O)[C@H](NC(=O)CCOCCN2CCC3(CCC(C(=O)NCCNC(=O)[C@H]4CC(=O)N(C)[C@@H]4c4cccnc4)CC3)CC2)C1 [compound 184] | 0.398 nM | – | 6390 nM | – | 69.2%
CC(C)N(C)[C@@H]1CC[C@H](N2CC[C@H](Nc3ncnc4ccc(C(F)(F)F)cc34)C2=O)[C@H](NC(=O)[C@H]2CC[C@H](N3CCN(CCOCCOCCNC(=O)[C@H]4CC(=O)N(C)[C@@H]4c4cccnc4)CC3)CC2)C1 [compound 190] | 2.51 nM | – | – | – | –
CC(C)N(C)[C@@H]1CC[C@H](N2CC[C@H](Nc3ncnc4ccc(C(F)(F)F)cc34)C2=O)[C@H](NC(=O)CCCCCCCCNCCCCCCCCCCNC(=O)[C@H]2CC(=O)N(C)[C@@H]2c2cccnc2)C1 [compound 196] | 0.251 nM | – | – | – | –
